Active and inactive are the calls of the source. The rule behind the calls is not given here.
Assays:
[1] = tested on: Mus musculus; test: In-vivo hypoglycemic activity in alloxan-pretreated diabetic BALB/c mouse assessed as blood glucose level at 10 mg/kg after 8 hrs by glucometer analysis (reference value: 385.2 +/- 8.94 mg/dl); assay type: functional
[2] = tested on: Mus musculus; test: In-vivo hypoglycemic activity in alloxan-pretreated diabetic BALB/c mouse assessed as blood glucose level at 10 mg/kg after 4 hrs by glucometer analysis (reference value: 385.2 +/- 8.94 mg/dl); assay type: functional
[3] = tested on: Mus musculus; test: In-vivo hypoglycemic activity in alloxan-pretreated diabetic BALB/c mouse assessed as blood glucose level at 10 mg/kg after 6 hrs by glucometer analysis (reference value: 385.2 +/- 8.94 mg/dl); assay type: functional
[4] = tested on: Mus musculus; test: In-vivo hypoglycemic activity in alloxan-pretreated diabetic BALB/c mouse assessed as blood glucose level at 10 mg/kg after 2 hrs by glucometer analysis (reference value: 385.2 +/- 8.94 mg/dl); assay type: functional
[5] = tested on: Mus musculus; test: In-vivo hypoglycemic activity in alloxan-pretreated diabetic BALB/c mouse assessed as blood glucose level at 10 mg/kg after 8 hrs by glucometer analysis; assay type: functional
[6] = species on record: Bos taurus; test: Selectivity index, ratio of IC50 for ALR1 in calf kidney to IC50 for ALR2 in calf lenses; assay type: tissue-based; conditions: Lens of camera-type eye
[7] = target: Aldo-keto reductase family 1 member B1 (Bos taurus, UniProt P16116); test: Inhibition of ALR2 in calf lenses using DL-glyceraldehyde as substrate treated with compound for 10 mins prior to substrate addition by UV spectrophotometer analysis; parameters: species or system Lens of camera-type eye
[8] = tested on: Mus musculus; test: In-vivo hypoglycemic activity in alloxan-pretreated diabetic BALB/c mouse assessed as blood glucose level after 8 hrs by glucometer analysis (reference value: 239.0 to 444.4 mg/dl); assay type: functional
[9] = tested on: aldehyde reductase (ALR1), Bos taurus; test: Inhibition of ALR1 in calf kidney using sodium D-glucoronate as substrate at 0.6 mM treated with compound for 10 mins prior to substrate addition by UV spectrophotometer analysis
[10] = tested on: Mus musculus; test: In-vivo hypoglycemic activity in alloxan-pretreated diabetic BALB/c mouse assessed as blood glucose level after 6 hrs by glucometer analysis (reference value: 239.0 to 444.4 mg/dl); assay type: functional
[11] = tested on: Mus musculus; test: In-vivo hypoglycemic activity in alloxan-pretreated diabetic BALB/c mouse assessed as blood glucose level after 2 hrs by glucometer analysis (reference value: 239.0 to 444.4 mg/dl); assay type: functional
[12] = tested on: Mus musculus; test: In-vivo hypoglycemic activity in alloxan-pretreated diabetic BALB/c mouse assessed as blood glucose level after 4 hrs by glucometer analysis (reference value: 239.0 to 444.4 mg/dl); assay type: functional
[13] = tested on: Mus musculus; test: In-vivo hypoglycemic activity in alloxan-pretreated diabetic BALB/c mouse assessed as decrease in blood glucose level after 8 hrs by glucometer analysis; assay type: functional
[14] = Retardation factor of the compound using petroleum ether/ethylacetate (6:4) as solvent system by TLC; assay type: physicochemical
[15] = target: Aldo-keto reductase family 1 member A1 (Bos taurus, UniProt Q3ZCJ2); test: Inhibition of ALR1 in calf kidney using sodium D-glucoronate as substrate treated with compound for 10 mins prior to substrate addition by UV spectrophotometer analysis
[16] = target: Aldo-keto reductase family 1 member B1 (Bos taurus) (UniProt P16116); test: Uncompetitive inhibition of ALR2 in calf lenses using DL-glyceraldehyde as substrate at 20 uM by Lineweaver-Burk plot analysis; conditions: Lens of camera-type eye
[17] = target: Aldo-keto reductase family 1 member B1 (Bos taurus) (UniProt P16116); test: Inhibition of ALR2 in calf lenses using DL-glyceraldehyde as substrate at 0.6 mM treated with compound for 10 mins prior to substrate addition by UV spectrophotometer analysis; conditions: Lens of camera-type eye

Chain of Aldo-keto reductase family 1 member A1 (Q3ZCJ2 2-325 limits assumed): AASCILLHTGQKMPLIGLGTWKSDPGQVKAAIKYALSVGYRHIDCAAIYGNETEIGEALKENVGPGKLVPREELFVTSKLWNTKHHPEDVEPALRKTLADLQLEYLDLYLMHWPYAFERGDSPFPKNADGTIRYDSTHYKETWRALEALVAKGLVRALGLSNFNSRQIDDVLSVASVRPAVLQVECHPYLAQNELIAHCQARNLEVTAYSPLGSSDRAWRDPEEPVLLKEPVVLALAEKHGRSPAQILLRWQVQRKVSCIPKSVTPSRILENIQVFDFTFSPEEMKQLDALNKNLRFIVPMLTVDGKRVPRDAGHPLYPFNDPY

Row | Compound | IC50 [7] [µM] | inhibition [9] [%] | Rf [14] | IC50 [15] [µM] | inhibition [16] | inhibition [17] [%] | Activity [1] [mg/dL] | Activity [2] [mg/dL] | Activity [3] [mg/dL] | Activity [4] [mg/dL] | inhibition in vivo at 10 mg/kg [5] [%] | Ratio IC50 [6] | Activity [8] [mg/dL] | Activity [10] [mg/dL] | Activity [11] [mg/dL] | Activity [12] [mg/dL] | inhibition (INH) [13] [%]
1 | COc1ccc(Cl)cc1C(=O)NCCc1ccc(S(=O)(=O)NC(=O)NC2CCCCC2)cc1 [GLYBURIDE] |  |  |  |  |  |  | 150.5 | 229.3 | 170.7 | 289.1 | 60.9 |  |  |  |  |  | 
2 | O=C1NC(=O)C2(c3ccccc3-c3ccccc32)N1S(=O)(=O)c1ccc([N+](=O)[O-])cc1 | 7.88 |  | 0.31 | 12.3 |  |  |  |  |  |  |  |  | 138.2 | 176.8 | 226.6 | 189.4 | 62.86
3 | O=C1NC2(C(=O)N1S(=O)(=O)c1ccc([N+](=O)[O-])cc1)c1ccccc1-c1ccccc12 | 1.8 |  | 0.35 | 3.51 |  |  |  |  |  |  |  | 1.95 | 121.8 | 175.2 | 226.6 | 190.4 | 55.25
4 | COc1ccc(S(=O)(=O)N2C(=O)NC3(C2=O)c2ccccc2-c2ccccc23)cc1 | 1.02 |  | 0.42 | 26.1 |  |  |  |  |  |  |  | 25.6 | 418.8 | 402.8 | 380.2 | 376 | 
5 | O=C1NC2(C(=O)N1S(=O)(=O)c1ccc(Cl)cc1)c1ccccc1-c1ccccc12 | 0.89 | 47.9 | 0.31 |  | Active |  |  |  |  |  |  | 53.8 | 68 | 78.8 | 232 | 160.4 | 72.24
6 | O=C1NC(=O)C2(c3ccccc3-c3ccccc32)N1S(=O)(=O)c1ccc2ccccc2c1 | 27.3 |  | 0.41 | 12.5 |  |  |  |  |  |  |  | 0.45 | 135 | 138.5 | 271.2 | 197.3 | 64.13
7 | O=C1NC2(C(=O)N1S(=O)(=O)c1ccc3ccccc3c1)c1ccccc1-c1ccccc12 |  | 47.9 | 0.44 |  |  | 52 |  |  |  |  |  |  | 108.6 | 123 | 277 | 206 | 66.44
8 | O=C1NC(=O)C2(c3ccccc3-c3ccccc32)N1S(=O)(=O)c1ccc(Br)cc1 | 3.86 |  | 0.33 | 11.5 |  |  |  |  |  |  |  | 2.97 | 72.8 | 115.8 | 217 | 168 | 70.55
9 | O=C1c2ccccc2C(=O)c2cc(S(=O)(=O)N3C(=O)NC(=O)C34c3ccccc3-c3ccccc34)ccc21 | 10.3 |  | 0.44 | 20.3 |  |  |  |  |  |  |  | 1.97 | 544.6 | 522.2 | 467 | 500 | 
10 | Cc1ccc(S(=O)(=O)N2C(=O)NC3(C2=O)c2ccccc2-c2ccccc23)cc1 | 2.84 |  | 0.27 | 5.15 |  |  |  |  |  |  |  | 1.81 | 123.6 | 146.6 | 229.3 | 180 | 48.28

Second part, led by results:

Row | IC50 [7] [µM] | inhibition [9] [%] | Rf [14] | IC50 [15] [µM] | inhibition [16] | inhibition [17] [%] | Compound | Activity [1] [mg/dL] | Activity [2] [mg/dL] | Activity [3] [mg/dL] | Activity [4] [mg/dL] | inhibition in vivo at 10 mg/kg [5] [%] | Ratio IC50 [6] | Activity [8] [mg/dL] | Activity [10] [mg/dL] | Activity [11] [mg/dL] | Activity [12] [mg/dL] | inhibition (INH) [13] [%]
11 | 5.37 | 52 | 0.31 |  |  |  | O=C1NC2(C(=O)N1S(=O)(=O)c1ccc(Br)cc1)c1ccccc1-c1ccccc12 |  |  |  |  |  | 9.68 | 63.5 | 339.5 | 266.5 | 297.2 | 73.72
12 | 5.8 |  | 0.43 | 13.9 |  |  | COc1ccc(S(=O)(=O)N2C(=O)NC(=O)C23c2ccccc2-c2ccccc23)cc1 |  |  |  |  |  | 2.39 | 129 | 143.6 | 275.6 | 205.6 | 66.38
13 | 11.3 | 44.9 | 0.47 |  |  |  | O=C1c2ccccc2C(=O)c2cc(S(=O)(=O)N3C(=O)NC4(C3=O)c3ccccc3-c3ccccc34)ccc21 |  |  |  |  |  | 2.41 | 442.6 | 400.4 | 305.8 | 336.4 | 
14 | 2.29 |  | 0.25 | 8.8 |  |  | Cc1ccc(S(=O)(=O)N2C(=O)NC(=O)C23c2ccccc2-c2ccccc23)cc1 |  |  |  |  |  | 3.84 | 116.2 | 152.2 | 286.2 | 239.4 | 61.67
15 | 1.72 |  | 0.2 | 12.1 |  |  | O=C1NC(=O)C2(c3ccccc3-c3ccccc32)N1S(=O)(=O)c1ccc(Cl)cc1 |  |  |  |  |  | 9.68 | 355 | 323.4 | 259.8 | 289 | 

Source: ChEMBL document CHEMBL3425483, “Synthesis, characterization, hypoglycemic and aldose reductase inhibition activity of arylsulfonylspiro[fluorene-9,5'-imidazolidine]-2',4'-diones” (Eur J Med Chem, 2015)
